{
  "source": "patent US20190192521A1",
  "about": "“Methods of Treating Arid1A-Mutated Cancers With HDAC6 Inhibitors and EZH2 Inhibitors” (The Wistar Institute of Anatomy and Biology, priority 2016, published 2019)",
  "key": {"[1]": {"test_system": "primary clear cell ovarian tumour cultures with (VOA4841) and without (XVOA295) ARID1A expression", "assay": "colony formation / dose response, primary clear cell ovarian tumour cultures", "assay_type": "cell-based, human", "description": "FIG. 71 illustrates the HDAC6 inhibitor ACY1215 dose response curves of primary clear cell ovarian tumour cultures with (VOA4841) and without (XVOA295) ARID1A expression; n=3 independent experiments.\nCell lines and 3D culture conditions. The protocol for using primary cultures of human ovarian clear cell tumour cells was approved by the University of British Columbia Institutional Review Board. The primary tumour cells were cultured in RPMI 1640 supplemented with 10% fetal bovine serum (FBS) and 1% penicillin/streptomycin. Ovarian clear cell carcinoma cell lines (TOV21G, OVTOKO, OVISE and RMG1) were purchased from JCRB (Japanese Collection of Research Bioresources) Cell Bank. TOV21G, OVTOKO, and OVISE cells were cultured in RPMI 1640 supplemented with 10% fetal bovine serum (FBS) and 1% penicillin/streptomycin. RMG1 cells were cultured in 1:1 Dulbecco's modified Eagle's medium (DMEM):F12 supplemented with 10% FBS. Viral packaging cells were cultured in DMEM supplemented with 10% FBS at 37° C. supplied with 5% CO2. Cells lines are authenticated at The Wistar Institute's Genomics Facility using short tandem repeat DNA profiling. Regular Mycoplasma testing was performed using LookOut Mycoplasma PCR detection (Sigma-Aldrich Co.). […]\nColony formation assays were performed as follows. […] Integrated density was measured using NIH ImageJ software."}, "[2]": {"test_system": "ARID1A-mutated TOV21G and OVISE cells", "assay": "apoptosis (Annexin V, cleaved caspase 3, cleaved PARP p85) in ARID1A-mutated cells", "assay_type": "cell-based, human", "description": "FIG. 10 illustrates the finding that HDAC6 inhibition induces apoptosis in ARID1A-inactivated cells. […] Cells were collected and stained for apoptotic markers Annexin V. Apoptotic cells were quantified. Error bars represent standard error of the mean. The p-value was calculated via a two-tailed t-test.\nFIG. 11 illustrates the results of the experiments of FIG. 10, but examined for apoptotic markers cleaved caspase 3 and cleaved PARP p85 by immunoblot. GAPDH expression was used as a loading control.\nCells were collected, incubated with an Annexin V-FITC antibody and subjected to flow cytometry analysis. Annexin V-positive cells (apoptotic) were measured with FloJo software. Mean of three independent experiments with S.E.M.\nFIG. 78 illustrates percent apoptosis based on Annexin V staining in ARID1A mutated TOV21G cells treated with 1.25 μM ACY1215, 20 μM pan-caspase inhibitor Q-VD-Oph, or a combination for 48 hrs.\nFIG. 79 illustrates percent apoptosis based on Annexin V staining in ARID1A mutated TOV21G cells treated with 1.25 μM ACY1215 for 48 hrs with or without knockdown of caspase 3 or caspase 9.\nFor immunoblotting, protein was isolated as described in Bitler et al. Nat. Med. 2015, 21, 231-238. Briefly, protein was extracted with RIPA buffer (150 mM NaCl, 1% NP40, 0.5% sodium deoxycholate, 0.1% SDS, 50 mM Tris pH 8.0, and 1 mM PMSF). Protein was separated on a SDS-PAGE and transferred to PVDF membrane. For immunoblot of p53 post-translation modifications, cells were treated with a proteasome inhibitor MG132 (10 μM) to stabilize p53 protein.\nAnnexin V and mitochondria membrane potentials were measured as follows. Phosphatidylserine externalization was detected using an Annexin V staining kit (Life Technologies) following the manufacturer's instructions. To measure change in mitochondria membrane potential cells were treated with 200 nM of tetramethylrhodamine, ethyl ester (TMRE; Abcam) for 15 min at 37° C. Annexin V and TMRE-positive cells were detected using the LSR18 and analyzed with the FlowJo software module."}, "[3]": {"test_system": "ARID1A wild-type RMG1 tumors", "assay": "intrabursal orthotopic xenograft, ARID1A wild-type RMG1", "assay_type": "in vivo, mice", "description": "The consecutive sections of tumors dissected from the indicated treatment groups were subjected to immunohistochemical staining for HDAC6, Ki67, cleaved caspase 3 and p53K120AC. Scale bar=100 μm.\nHistological score (H-score) was calculated for 5 separate fields from 6 tumors from 6 individual mice from each of the indicated groups. Error bars represent S.E.M. The p-values were calculated via two-tailed t-test.\nImmunofluorescence and immunohistochemical staining was performed as follows. Immunofluorescence was performed after 48 hours as indicated by fixing samples in 4% paraformaldehyde and permeabilizing with 0.5% Triton-X. Samples were incubated with primary antibodies for 2 hours at room temperature, highly cross absorbed secondary antibodies (Invitrogen) for 1 hour at room temperature and mounted with prolong anti-fade reagent (Invitrogen). […] Expression of the stained markers was scored using a histologic score (H score) as previously described. […]\nThe intrabursal orthotopic xenograft in vivo model was performed as described previously (Bitler et al. Nat. Med. 2015, 21, 231-238; Bitler et al. Cancer Research 2011, 71, 6184-6194). […] Images were analyzed using Live Imaging 4.0 software. At end of the experiments, tumors were surgically dissected and tumor burden was calculated based on tumor weight. Intraperitoneally disseminated tumor nodules were quantified."}},
  "data": [
    {"smiles": "O=C(CCCCCCNC(=O)c1cnc(N(c2ccccc2)c2ccccc2)nc1)NO", "note": "[rocilinostat, 2-(diphenylamino)-N-(7-(hydroxyamino)-7-oxoheptyl)pyrimidine-5-carboxamide]", "values": [
      {"measurement": "IC50 values in primary cells", "setting": "[1]", "value": "comparable to those observed in cell lines"},
      {"measurement": "sensitivity of cultures without ARID1A expression compared to those with ARID1A expression", "setting": "[1]", "value": "more sensitive"},
      {"measurement": "apoptosis induced by the compound after knockdown of Caspase 8", "setting": "[2]", "value": "did not affect the apoptosis"},
      {"measurement": "apoptosis induced by the compound after knockdown of caspase 9 or caspase 3", "setting": "[2]; TOV21G, 1.25 μM, 48 hrs", "value": "significantly suppressed the apoptosis"},
      {"measurement": "apoptosis: Annexin V positive cells, cleaved caspase 3, cleaved PARP p85", "setting": "[2]; rocilinostat 1.25 μM, 48 hours", "value": "induced apoptosis"},
      {"measurement": "growth, tumor burden, dissemination of ARID1A wild-type tumors", "setting": "[3]; 50 mg/kg daily, 3 weeks", "value": "did not significantly affect the growth, tumor burden or dissemination"},
      {"measurement": "expression of Ki67, cleaved caspase 3, p53K120Ac (IHC)", "setting": "[3]; ARID1A wild-type tumors", "value": "did not affect the expression of Ki67, cleaved caspase 3, or p53K120Ac"}
    ]}
  ]
}
